From patent publication US20250034216A1, “STEREOSELECTIVE COVALENT LIGANDS FOR ONCOGENIC AND IMMUNOLOGICAL PROTEINS” (The Scripps Research Institute, priority 2021, published 2025)

Key:
Assay in all cases: IA-DTB cysteine engagement
Format in all cases: binding
Conditions in all cases: 22Rv1 cells, 20 μM probe, 1 h, relative to DMSO
STRBP_C142 = biological target: T1, STRBP_C142 (Homo sapiens, UniProt Q96SI9)
T1 construct: endogenous in cells; host or cells: 22Rv1
T1 sequence (Q96SI9 1-672): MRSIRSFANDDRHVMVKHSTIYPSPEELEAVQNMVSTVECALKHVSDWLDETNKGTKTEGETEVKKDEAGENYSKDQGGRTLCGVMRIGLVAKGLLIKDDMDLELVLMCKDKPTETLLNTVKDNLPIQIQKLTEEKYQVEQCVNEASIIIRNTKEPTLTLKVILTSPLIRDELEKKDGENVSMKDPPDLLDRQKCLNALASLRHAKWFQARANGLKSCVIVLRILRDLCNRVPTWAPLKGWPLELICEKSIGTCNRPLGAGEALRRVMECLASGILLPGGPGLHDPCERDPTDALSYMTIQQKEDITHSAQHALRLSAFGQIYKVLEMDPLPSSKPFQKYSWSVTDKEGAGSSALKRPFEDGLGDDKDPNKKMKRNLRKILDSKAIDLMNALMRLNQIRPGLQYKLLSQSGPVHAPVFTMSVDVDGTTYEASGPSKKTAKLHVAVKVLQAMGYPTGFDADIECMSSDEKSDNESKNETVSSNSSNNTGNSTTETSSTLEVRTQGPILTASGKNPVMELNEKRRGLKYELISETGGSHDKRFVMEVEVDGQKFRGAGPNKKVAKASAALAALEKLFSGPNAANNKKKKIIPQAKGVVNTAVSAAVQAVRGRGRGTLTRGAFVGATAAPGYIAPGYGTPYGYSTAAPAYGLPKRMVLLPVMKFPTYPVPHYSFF
Procedure, shortened: (§1)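 Competitive chemoproteomics: residual cysteine reactivity toward IA-DTB in lysates from probe-treated cells was quantified by TMT reporter ions relative to DMSO-treated controls. Replicates sharing cell line, probe, concentration and duration were averaged.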

GRIN2C_C1105 = biological target: T2, GRIN2C_C1105 (Homo sapiens, UniProt Q14957)
T2 construct: endogenous in cells; host or cells: 22Rv1
T2 sequence (Q14957 20-1233, other chains not shown): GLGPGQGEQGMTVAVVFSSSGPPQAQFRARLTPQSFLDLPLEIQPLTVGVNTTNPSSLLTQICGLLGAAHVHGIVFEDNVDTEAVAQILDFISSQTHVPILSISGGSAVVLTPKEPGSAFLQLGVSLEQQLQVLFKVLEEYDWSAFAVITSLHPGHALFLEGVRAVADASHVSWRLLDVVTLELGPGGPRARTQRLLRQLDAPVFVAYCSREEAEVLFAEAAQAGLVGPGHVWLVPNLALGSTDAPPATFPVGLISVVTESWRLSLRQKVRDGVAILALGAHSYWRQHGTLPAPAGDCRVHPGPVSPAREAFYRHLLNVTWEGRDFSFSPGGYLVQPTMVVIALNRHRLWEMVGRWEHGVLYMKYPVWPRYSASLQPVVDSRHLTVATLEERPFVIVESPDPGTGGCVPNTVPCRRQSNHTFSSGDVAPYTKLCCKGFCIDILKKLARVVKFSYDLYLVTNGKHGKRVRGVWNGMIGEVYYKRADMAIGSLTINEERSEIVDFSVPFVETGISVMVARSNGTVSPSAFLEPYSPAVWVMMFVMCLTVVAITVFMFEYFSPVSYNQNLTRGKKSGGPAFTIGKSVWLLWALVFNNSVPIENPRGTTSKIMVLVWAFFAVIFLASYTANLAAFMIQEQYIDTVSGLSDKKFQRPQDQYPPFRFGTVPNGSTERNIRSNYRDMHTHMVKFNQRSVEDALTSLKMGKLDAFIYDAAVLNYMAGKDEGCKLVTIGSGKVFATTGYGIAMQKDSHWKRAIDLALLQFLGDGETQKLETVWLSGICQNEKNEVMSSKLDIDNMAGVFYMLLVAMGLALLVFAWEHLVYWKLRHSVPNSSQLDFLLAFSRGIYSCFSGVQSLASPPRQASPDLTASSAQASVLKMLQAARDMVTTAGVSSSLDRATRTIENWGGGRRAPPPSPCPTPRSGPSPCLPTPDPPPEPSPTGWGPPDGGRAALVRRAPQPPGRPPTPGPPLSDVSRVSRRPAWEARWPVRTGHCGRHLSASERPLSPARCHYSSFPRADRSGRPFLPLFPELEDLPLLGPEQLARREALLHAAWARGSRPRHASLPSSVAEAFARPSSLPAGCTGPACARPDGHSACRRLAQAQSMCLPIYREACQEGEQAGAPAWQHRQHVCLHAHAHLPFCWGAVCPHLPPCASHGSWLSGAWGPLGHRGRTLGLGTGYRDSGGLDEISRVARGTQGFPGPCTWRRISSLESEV
Procedure, shortened: as §1

MTMR12_C152 = biological target: T3, MTMR12_C152 (Homo sapiens, UniProt Q9C0I1)
T3 construct: endogenous in cells; host or cells: 22Rv1
T3 sequence (Q9C0I1 1-747): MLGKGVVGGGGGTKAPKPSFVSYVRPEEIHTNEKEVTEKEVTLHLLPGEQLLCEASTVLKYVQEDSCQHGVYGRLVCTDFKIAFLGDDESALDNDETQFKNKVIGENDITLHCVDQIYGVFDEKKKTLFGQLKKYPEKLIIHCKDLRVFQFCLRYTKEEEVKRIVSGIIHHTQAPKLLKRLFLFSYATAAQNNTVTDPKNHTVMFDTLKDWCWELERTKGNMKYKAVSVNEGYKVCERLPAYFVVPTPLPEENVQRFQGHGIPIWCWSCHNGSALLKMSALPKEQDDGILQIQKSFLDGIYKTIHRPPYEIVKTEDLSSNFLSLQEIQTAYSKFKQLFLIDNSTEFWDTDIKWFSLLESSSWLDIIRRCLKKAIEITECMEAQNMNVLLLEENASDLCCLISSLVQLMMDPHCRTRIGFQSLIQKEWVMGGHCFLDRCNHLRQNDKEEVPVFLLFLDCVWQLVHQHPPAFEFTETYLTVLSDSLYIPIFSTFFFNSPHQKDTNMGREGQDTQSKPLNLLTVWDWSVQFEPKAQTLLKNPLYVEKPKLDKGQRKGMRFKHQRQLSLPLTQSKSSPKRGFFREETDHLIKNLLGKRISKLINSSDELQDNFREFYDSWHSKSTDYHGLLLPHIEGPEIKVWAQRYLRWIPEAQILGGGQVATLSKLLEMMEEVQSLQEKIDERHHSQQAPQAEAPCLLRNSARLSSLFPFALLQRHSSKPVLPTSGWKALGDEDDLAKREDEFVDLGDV
Procedure, shortened: as §1

% engagement STRBP_C142 (STRBP_C142) [%] | % engagement GRIN2C_C1105 (GRIN2C_C1105) [%] | % engagement MTMR12_C152 (MTMR12_C152) [%] | Compound
88.25 | 78.5 | 40.5 | C=CC(=O)N1C[C@@H](c2ccc(Br)cc2)[C@H]1C(=O)Nc1cccc2cccnc12 [MY-1A, (2S,3R)-1-acryloyl-3-(4-bromophenyl)-N-(quinolin-8-yl)azetidine-2-carboxamide]
8.5 | 40.5 | 31 | C=CC(=O)N1C[C@H](c2ccc(Br)cc2)[C@@H]1C(=O)Nc1cccc2cccnc12 [MY-1B, (2R,3S)-1-acryloyl-3-(4-bromophenyl)-N-(quinolin-8-yl)azetidine-2-carboxamide]
7.75 | 64.5 | 91.5 | C=CC(=O)N1C[C@H](c2ccc(Br)cc2)[C@H]1C(=O)Nc1cccc2cccnc12 [MY-3B, (2S,3S)-1-acryloyl-3-(4-bromophenyl)-N-(quinolin-8-yl)azetidine-2-carboxamide]
16.25 | 85 | 12 | C=CC(=O)N1C[C@H](c2ccc(Br)cc2)[C@H]1C(=O)Nc1cccc2cccnc12 [MY-3A, (2S,3S)-1-acryloyl-3-(4-bromophenyl)-N-(quinolin-8-yl)azetidine-2-carboxamide]
